Data set [1] is described as follows: Human exposure (AUC 0-24). Particulars: in vivo; human @ 300 mg dose.
Another data set concerns S. aureus. The data set is described as follows: Broth microdilution MIC. It is filed as cell-based. As to conditions: Staphylococcus aureus, ATCC29213; S. aureus ATCC 29213.
Data set [2] has as its system intracellular S. aureus (including linezolid-resistant). As to conditions: cited from earlier work.
The subject of another data set is B. fragilis. In words: Broth microdilution MIC. It counts as cell-based. Particulars: Bacteroides fragilis, ATCC25285; B. fragilis ATCC 25285. (In general: Broth dilution looks for growth in wells or tubes with falling amounts of substance.)

In brackets after ≈: the same amount, converted by molar mass.

These results are taken from US10471046B2, “Method for treating, preventing, or reducing the risk of skin infection” (Melinta Subsidiary Corp., priority 2014, dated 2019).

What is called AUC(0-t) is the area under the concentration-time curve up to a stated or last time point. Low values mean less exposure, high ones more exposure. As usually defined, the MIC is the lowest concentration that inhibits growth of the organism. Lower therefore signals a more susceptible organism.

As for `CC(=O)NC[C@H]1CN(c2ccc(-c3ccc(CNCc4cnn[nH]4)cc3)c(F)c2)C(=O)O1` [Radezolid, (5S)—N-[3-(2-Fluoro-4′-{[(1H-[1,2,3]triazol-4-ylmethyl)-amino]-methyl}-biphenyl-4-yl)-2-oxo-oxazolidin-5-ylmethyl]-acetamide], in data set [1], the AUC(0-t) was found to be 3330 ng·h/mL. In addition, the MIC with S. aureus and in the data set with B. fragilis was 2 µg/mL (≈ 4.56 µM) each time. Moreover, in data set [2], the intracellular killing entry is given as “kills”.
